Data: PubChem BioAssay (NCI)
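A five-concentration, 48-hour dose response in 96-well plates underlies each endpoint, interpolated linearly between surrounding concentrations. Abbreviation: GI50, concentration required for 50% inhibition of growth. TGI is the concentration that stops growth completely.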

Columns and labels:
Assay in all cases: growth of human tumour cells (NCI), 48 h
SNB-19 CNS = system: SNB-19 CNS
CAKI-1 renal = system: CAKI-1 renal
NCI/ADR-RES ovarian = system: NCI/ADR-RES ovarian
RXF 393 renal = system: RXF 393 renal
SK-MEL-2 melanoma = system: SK-MEL-2 melanoma
BT-549 breast = system: BT-549 breast
HCT-15 colon = system: HCT-15 colon
NCI-H23 lung = system: NCI-H23 lung
UO-31 renal = system: UO-31 renal
CCRF-CEM leukemia = system: CCRF-CEM leukemia
DU-145 prostate = system: DU-145 prostate
COLO 205 colon = system: COLO 205 colon
UACC-62 melanoma = system: UACC-62 melanoma
SK-MEL-5 melanoma = system: SK-MEL-5 melanoma
PC-3 prostate = system: PC-3 prostate
SN12C renal = system: SN12C renal
HOP-92 NSCLC = system: HOP-92 NSCLC
MCF7 breast = system: MCF7 breast
KM12 colon = system: KM12 colon
HCC-2998 colon = system: HCC-2998 colon
SK-MEL-28 melanoma = system: SK-MEL-28 melanoma
HT29 colon = system: HT29 colon
M14 melanoma = system: M14 melanoma
IGROV1 ovarian = system: IGROV1 ovarian
K-562 leukemia = system: K-562 leukemia
LOX IMVI melanoma = system: LOX IMVI melanoma
NCI-H226 lung = system: NCI-H226 lung
SNB-75 CNS = system: SNB-75 CNS
MDA-MB-231 breast = system: MDA-MB-231 breast
HS 578T breast = system: HS 578T breast
UACC-257 melanoma = system: UACC-257 melanoma
NCI-H460 lung = system: NCI-H460 lung
NCI-H522 lung = system: NCI-H522 lung
SF-539 CNS = system: SF-539 CNS
OVCAR-3 ovarian = system: OVCAR-3 ovarian
TK-10 renal = system: TK-10 renal
T-47D breast = system: T-47D breast
A549 NSCLC = system: A549 NSCLC
HCT-116 colon = system: HCT-116 colon
MOLT-4 leukemia = system: MOLT-4 leukemia
OVCAR-5 ovarian = system: OVCAR-5 ovarian
U251 CNS = system: U251 CNS
HOP-62 NSCLC = system: HOP-62 NSCLC
SF-295 CNS = system: SF-295 CNS
SF-268 CNS = system: SF-268 CNS
RPMI-8226 leukemia = system: RPMI-8226 leukemia
A498 renal = system: A498 renal
EKVX NSCLC = system: EKVX NSCLC
ACHN renal = system: ACHN renal
SR leukemia = system: SR leukemia
SK-OV-3 ovarian = system: SK-OV-3 ovarian
OVCAR-8 ovarian = system: OVCAR-8 ovarian
786-0 renal = system: 786-0 renal
MDA-MB-435 = system: MDA-MB-435
SW-620 colon = system: SW-620 colon
OVCAR-4 ovarian = system: OVCAR-4 ovarian
HL-60(TB) leukemia = system: HL-60(TB) leukemia

## CCCCCCCCCCC(C(O)c1ccccc1)N1CCCCC1 (centres undefined)
SNB-19 CNS
  GI50: 1840 nM
  TGI: 3.95 µM
CAKI-1 renal
  GI50: 1530 nM
  TGI: 3.06 µM
NCI/ADR-RES ovarian
  GI50: 2990 nM
  TGI: 10.7 µM
RXF 393 renal
  GI50: 1760 nM
  TGI: 3.4 µM
SK-MEL-2 melanoma
  GI50: 2250 nM
  TGI: 4.84 µM
BT-549 breast
  GI50: 4.57 µM
  TGI: 16.5 µM
HCT-15 colon
  GI50: 1630 nM
  TGI: 4.38 µM
NCI-H23 lung
  GI50: 2270 nM
  TGI: 5.97 µM
UO-31 renal
  GI50: 1240 nM
  TGI: 2840 nM
CCRF-CEM leukemia
  GI50: 1970 nM
  TGI: 7.77 µM
DU-145 prostate
  GI50: 2070 nM
  TGI: 6.72 µM
COLO 205 colon
  GI50: 1540 nM
  TGI: 2930 nM
UACC-62 melanoma
  GI50: 2010 nM
  TGI: 4.01 µM
SK-MEL-5 melanoma
  GI50: 1690 nM
  TGI: 3.06 µM
PC-3 prostate
  GI50: 3.43 µM
  TGI: 12.4 µM
SN12C renal
  GI50: 2550 nM
  TGI: 10.4 µM
HOP-92 NSCLC
  GI50: 1820 nM
  TGI: 3.83 µM
MCF7 breast
  GI50: 1870 nM
  TGI: 3.43 µM
KM12 colon
  GI50: 1290 nM
  TGI: 2720 nM
HCC-2998 colon
  GI50: 1610 nM
  TGI: 3.07 µM
SK-MEL-28 melanoma
  GI50: 1830 nM
  TGI: 3.32 µM
HT29 colon
  GI50: 1720 nM
  TGI: 4.41 µM
M14 melanoma
  GI50: 1870 nM
  TGI: 3.47 µM
IGROV1 ovarian
  GI50: 1500 nM
  TGI: 3.15 µM
K-562 leukemia
  GI50: 2190 nM
  TGI: 5.93 µM
LOX IMVI melanoma
  GI50: 1670 nM
  TGI: 3.03 µM
NCI-H226 lung
  GI50: 2910 nM
  TGI: 12.4 µM
SNB-75 CNS
  GI50: 2320 nM
  TGI: 5.65 µM
MDA-MB-231 breast
  GI50: 1760 nM
  TGI: 3.69 µM
HS 578T breast
  GI50: 2020 nM
  TGI: 4.52 µM
UACC-257 melanoma
  GI50: 2020 nM
  TGI: 4.28 µM
NCI-H460 lung
  GI50: 1840 nM
  TGI: 3.36 µM
NCI-H522 lung
  GI50: 1940 nM
  TGI: 3.91 µM
SF-539 CNS
  GI50: 2060 nM
  TGI: 3.84 µM
OVCAR-3 ovarian
  GI50: 1110 nM
  TGI: 2570 nM
TK-10 renal
  GI50: 2160 nM
  TGI: 4.83 µM
T-47D breast
  GI50: 1910 nM
  TGI: 4.35 µM
A549 NSCLC
  GI50: 4.61 µM
  TGI: 17.1 µM
HCT-116 colon
  GI50: 1620 nM
  TGI: 3.01 µM
MOLT-4 leukemia
  GI50: 2230 nM
  TGI: 5.86 µM
OVCAR-5 ovarian
  GI50: 2470 nM
  TGI: 6.85 µM
U251 CNS
  GI50: 1740 nM
  TGI: 3.46 µM
HOP-62 NSCLC
  GI50: 1910 nM
  TGI: 3.78 µM
SF-295 CNS
  GI50: 1830 nM
  TGI: 3.23 µM
SF-268 CNS
  GI50: 1510 nM
  TGI: 4.73 µM
RPMI-8226 leukemia
  GI50: 1900 nM
  TGI: 4.34 µM
A498 renal
  GI50: 1920 nM
  TGI: 6.77 µM
EKVX NSCLC
  GI50: 2090 nM
  TGI: 6.08 µM
ACHN renal
  GI50: 2190 nM
  TGI: 4.95 µM
SR leukemia
  GI50: 2130 nM
  TGI: 5.34 µM
SK-OV-3 ovarian
  GI50: 2590 nM
  TGI: 7.82 µM
OVCAR-8 ovarian
  GI50: 3.29 µM
  TGI: 13 µM
786-0 renal
  GI50: 1780 nM
  TGI: 3.25 µM
MDA-MB-435
  GI50: 1660 nM
  TGI: 3.03 µM
SW-620 colon
  GI50: 1700 nM
  TGI: 3.21 µM
OVCAR-4 ovarian
  GI50: 3.66 µM
  TGI: 13.2 µM
HL-60(TB) leukemia
  GI50: 1960 nM
  TGI: 4.25 µM
